# Measurements published in a melting point compilation (Tetko et al.; mined from patent text by program, amines drawn as free bases though some values may be those of a salt).
row,Structure (SMILES),melting point
1,CNC(=O)N1N=C(c2ccc(N)cc2)c2cc(Cl)c(Cl)cc2CC1C (configuration not stated),224 to 225 °C
2,CS(=O)N1CCSc2cccc(Cl)c2C1 (configuration not stated),82 to 84 °C
3,OC1CCCc2nc3ccccc3c(NCc3cccc(F)c3)c21 (configuration not stated),128 °C
4,CCOc1c(C#N)c(C#N)c(OCC)c2ccccc12,167 °C
5,N#CCc1ccc(F)cc1I,52 to 53 °C
6,COc1cc(C(C)=O)ccc1OCCCN1CCN(c2n[nH]c3cc(F)ccc23)CC1,135 to 137 °C
7,Cn1ncc2c(C(F)F)cc(Cl)nc21,105 °C
8,ON=C1CCC(C2CCCCC2)=C1c1ccc(F)cc1,173 to 176 °C
9,O=[N+]([O-])c1cc(Br)ccc1Cl,65 to 67 °C
10,CCOc1cccc(-c2n[nH]c(-c3ccccc3C)n2)c1,84 to 86 °C
11,CCOc1ccnc(CSc2nc3cc4c(cc3[nH]2)C(C)(C)C(=O)C4(C)C)c1C,175 to 176 °C
12,COc1ccc(C2CC(=O)OC(=O)C2)cc1OC,118 to 120 °C
13,Cc1ccc2c(c1)c(=O)oc(=O)n2C,153 °C
14,Cc1ccc(C(=O)Nc2ccc(C)c(-c3nc(S(C)(=O)=O)nc4c3CNC(=O)N4c3c(F)cccc3F)c2)cc1F,> 270 °C
15,CC(C)(C)c1cc(C(c2ccc([N+](=O)[O-])cc2)N2CCCCC2)cc(C(C)(C)C)c1O (configuration not stated),147 to 148 °C
16,Cc1cccc(N(C)c2n[nH]c3ncnc(Nc4cccc(Cl)c4)c23)n1,231 to 233 °C
17,Oc1cnn(-c2ccc(Cl)cc2Cl)c1,148 to 149 °C
18,O=c1[nH]c2cc(O)ccc2n1CCN1CCN(c2cccc(C(F)(F)F)c2)CC1,275 °C
19,COc1cc(Nc2nccc(-c3cccc(N)c3)n2)cc(OC)c1OC,166 to 167 °C
20,Cc1ccc(Sc2ncnc3ccccc23)cc1,96 °C
21,Nc1cccc2[nH]c3c(c12)CCN(Cc1ccccc1)CC3,164 to 165 °C
22,CSc1ccc(C(=O)Nc2cccnc2C(=O)Nc2ccc(Cl)cn2)c(OC2CCNCC2)c1,157 to 158 °C
23,CNc1c([N+](=O)[O-])ccc2c1OC(COS(=O)(=O)c1ccc(C)cc1)CO2 (configuration not stated),149 to 151 °C
24,COc1ccc(C(=O)Nc2ccc3ccc(Oc4c(C)cccc4C)nc3n2)cc1,174 °C

row,Structure (SMILES),melting point
1,Cc1nc(-c2ccc(Cl)cc2)c2nc(-c3ccccc3)cc-2[nH]1,281 to 283 °C
2,C1=Cc2cc(/C=C/c3ccc4c(c3)C=C4)ccc21,132 °C
3,O=C1c2ccccc2Cc2ccccc2C1Br (configuration not stated),82 to 84 °C
4,COc1ccc2cnc3c(c2c1)NC(=O)CC3,254 to 256 °C
5,CCS(=O)(=O)Nc1ccc([N+](=O)[O-])cc1SC1CCCCC1,119 to 120 °C
6,CN1CCC(C2=C(C#N)C(c3cccc(C#N)c3Br)c3c[nH]nc3N2)CC1 (configuration not stated),> 270 °C
7,Cc1cc(C(=O)Nc2ccc3cc(CN4CCCC4)cnc3c2C)ccc1-c1ccc(F)cc1,200 to 202 °C
8,ClCc1cnn(-c2ccc(Cl)c(Cl)c2)c1,66 to 67 °C
9,CNC1Oc2cc(Cl)cc(-c3cc(F)ccc3F)c2O1 (configuration not stated),> 250 °C
10,Cc1ccc2nc3c(C)cc(=O)c(Cl)c-3sc2c1,215 to 218 °C
11,Cc1cnc(I)nc1Oc1cc(C(F)(F)F)nn1C,94 °C
12,COc1[nH]c(C)c(SC(F)(Cl)Cl)c1C#N,175 °C
13,Cc1cccc(N2CCN(CCCCCC(=O)N3Cc4ccccc4C3)CC2)c1C#N,126 °C
14,c1ccc(COc2nn3c(-c4cc(-c5cccs5)on4)nnc3c3ccccc23)nc1,213 to 215 °C
15,O=C1CC(c2ccc(F)cc2)Cc2occ(C(F)(F)F)c21 (configuration not stated),105 to 106 °C
16,Cc1cc(F)c(-n2c(=O)oc3c(c2=O)CCC3)cc1OC(C)C,131 to 133 °C
17,COc1ccc(C=Nc2ccc(SC)cc2)cc1,183 to 184 °C
18,C[C@H](c1ccccc1)n1c(=O)[nH]c2ncc(-c3ccc(-c4nc[nH]n4)cc3)nc21,258 to 260 °C
19,O=C1CCC(CCN2CC(N3CCOCC3)C2)(c2ccc(Cl)c(Cl)c2)CN1Cc1ccc(-c2ccccc2)cc1 (configuration not stated),72 to 82 °C
20,[O-][N+]1=C(c2ccccc2F)c2cc(Cl)ccc2C=CC1,138 to 139 °C
21,Clc1ncc(-c2ccc3ccncc3c2)c2ccccc12,169 to 170 °C
22,Cc1cc(NC2=NCCN2C)n(C)n1,128 to 130 °C
23,Nc1ncc(-c2ccc(=O)[nH]n2)c(-c2ccc(Cl)c(Cl)c2)n1,300 °C

# Other lines, results leading:
row,melting point,Structure (SMILES)
1,142 to 144 °C,CC(=O)c1ccc(O)c(C(C)C)c1
2,142 to 144 °C,O=C(NCC(=O)N1CCC(=C2c3ccccc3C=Cc3ccccc32)CC1)OCc1ccccc1
3,51 to 54 °C,O=C(CO)c1ccccc1F
4,67 to 69 °C,CC(C)(CCCCOCCCc1ccccc1)NCc1c(CO)ccc(O)c1CO
5,47 to 48 °C,CCOC(=O)NCCc1ccccc1
6,171 to 173 °C,O=C(NNC(=O)c1occc1-c1cccc(OCc2ccccc2)c1)c1ccc(O)c([N+](=O)[O-])c1
7,94 to 96 °C,O=Cc1ccc(OCc2coc(-c3ccccc3)n2)cc1
8,203 to 205 °C,CC(C)CC1(C(CCN2C(=O)c3ccc4c(ccc5ccccc54)c3C2=O)C(=O)NO)CCN(CCc2ccccc2)C1=O (configuration not stated)
9,168 to 170 °C,COc1ccc2c(c1)c(OC(C)C)c(C(=O)Nc1ccccc1O)n2-c1ccccc1
10,170 to 172 °C,CN1CCN(C(=O)c2cc3ccccc3c(=O)[nH]2)CC1
11,154 to 157 °C,C=CCC(=CC(N)C(=O)O)CP(=O)(O)O (configuration not stated)
12,> 230 °C,CC(C)NC1=NS(=O)(=O)c2cc(Cl)cc(N)c2N1
13,96 to 98 °C,CS(=O)(=O)Cc1cccc(C(F)(F)F)c1N
14,109 to 110 °C,CC(C)C[C@@H](C=O)NC(=O)[C@H](Cc1c[nH]cn1)NC(=O)[C@H](Cc1c[nH]c2ccccc12)NC(=O)OCc1ccccc1
15,130 to 132 °C,CC(OC1CN(C(N)=O)C1)c1cccc(C(F)(F)F)c1 (configuration not stated)
16,147 °C,O=C(O)CSc1cc(=Nc2ccccc2)ss1
17,67 to 70 °C,COc1cc(C=CC(=O)CCCOc2ccccc2)ccc1O
18,170 to 172 °C,Nc1ncnc2c1c(Br)cn2COC(O)CCO (configuration not stated)
19,79 to 81 °C,CCOC(=O)C1=C(C)NC(C)=C(C(=O)OCCN2CCN(C(c3ccc(C)cc3)c3ccc(C)cc3)CC2)C1c1cccc(Cl)c1 (configuration not stated)
20,101 to 102 °C,CCC(O)c1cc(-c2ccccc2)no1 (configuration not stated)
21,134 to 135 °C,COC(=O)c1cc(Cl)c(C(=O)OC)cc1Cl
22,159 to 162 °C,O=c1c2cccc3c2n(c(=O)n1CC(O)CO)-c1cc(C(F)(F)F)ccc1S3 (configuration not stated)
23,211 to 214 °C,COc1c(Cl)ccc(-c2cc(N)c(Cl)c(C(=O)N(C)O)n2)c1F
24,69 to 70 °C,CCOC(=O)/C=C/c1ccc(OCOC)cc1Oc1ccc(C(F)(F)F)cn1
25,64 to 65 °C,C=CC[C@H]1CC(C(=O)OCC[Si](C)(C)C)=C[C@@H](OC(C)C)[C@@H]1NC(C)=O
26,150 to 152 °C,CCOC(=O)C1=C(C)NC(=O)N(C(=O)OCC)C1c1ccccc1[N+](=O)[O-] (configuration not stated)
27,179 to 181 °C,CC(Cc1c[nH]c2ccccc12)(NC(=O)OCC1c2ccccc2-c2ccccc21)C(=O)NCCc1ccccc1 (configuration not stated)
28,173 °C,C=COC(=O)N=c1sc2cc(OC(F)(F)F)ccc2n1CCSC(C)=O

row,melting point,Structure (SMILES)
1,131 to 132 °C,Cc1cnc(CNC(=O)c2sc(N3C[C@@H](C)N(Cc4cc(F)cc(F)c4)C3=O)nc2C)cn1
2,102 °C,CCOCCc1cc(O)ccc1N
3,101 to 103 °C,COc1cccc2c1CCC1C(=O)N(C(C)c3ccccc3)C(=O)C21 (configuration not stated)
4,109 to 111 °C,Cc1c(NC(=O)CC(C)(C)C)cc2c(c1C)OC(C)(C)C2(O)c1ccccc1 (configuration not stated)
5,41 to 42 °C,COCCOCCOC(=O)C#CC(=O)/C=C/c1ccc(OC)cc1
6,125 to 126 °C,Nc1cc(F)c(F)cc1C(=O)NOCc1ccccc1
7,248 to 253 °C,CCCCn1c(=O)c2c(NC)n[nH]c2n(CCO)c1=O
8,123 to 124 °C,CCOC(=O)N(NC(N)=O)c1ccc(CC[Si](OCC)(OCC)OCC)cc1
9,99 to 100 °C,CCCn1cc(Cc2ccc(C(=O)OC)cc2OC)c2cc(C=O)ccc21
10,260 to 263 °C,CCOC(=O)c1ncc2[nH]c3c(C(C)(C)C)cc(C(C)(C)C)cc3c2c1C
11,133 °C,CC(=O)OC1CSC(Sc2cccc(C#N)c2)C(OC(C)=O)C1OC(C)=O (configuration not stated)
12,107 to 109 °C,O=c1[nH]c(=O)n([C@@H]2O[C@H](CO)[C@@H](O)[C@H]2O)cc1/C(I)=C\I
13,104 to 106 °C,Cc1ccccc1CC1(CO)CCN(C(=O)OC(C)(C)C)CC1
14,125 °C,CCC(=O)Nc1ccnn1-c1c(Cl)cc(C(F)(F)F)cc1Cl
15,160 to 162 °C,CC(=O)C1=CCC2C3CCC4CC(O)CCC4(C)C3C(OC(=O)CCl)CC12C (configuration not stated)
16,106 to 108 °C,CCOC(=O)c1nn(-c2ccccc2Br)c(=O)c(C#N)c1C
17,143 to 144 °C,O=C(NCCNCC1COc2ccccc2O1)C12CC3CC(CC1C3)C2 (configuration not stated)
18,112 °C,Cc1cc(SC2=C(O)CC(CCc3ccc(O)cc3)(C3CCCCC3)OC2=O)c(C(C)(C)C)cc1OS(=O)(=O)c1ccc(C#N)cc1 (configuration not stated)
19,85 to 86 °C,CC(C)(CO)CCCC(O)CCCC(O)CCCC(C)(C)CO (configuration not stated)
20,136 to 138 °C,Cc1cc2c([C@@H]3C[C@H]3CNC(=O)C(F)(F)F)cccn2n1 (relative stereo)
21,162 to 164 °C,CC(c1cc(C(C)(C)C)c(O)c(C(C)(C)C)c1)N(O)C(N)=O (configuration not stated)
22,192 °C,CON(C)C(=O)C(O)CNC(=O)c1cc2cc(Cl)ccc2[nH]1 (racemic)
23,110 °C,C#Cc1cn(C2CC(O)C(COC(c3ccccc3)(c3ccccc3)c3ccccc3)O2)c(=O)[nH]c1=O (configuration not stated)
24,252 to 253 °C,COc1ccc2[nH]c(C(C)C)c(/C=C/C(=O)c3ccncc3)c2c1
25,68 to 71 °C,CC(C)(C)Oc1ccc(S(=O)(=O)N2c3ccccc3C[C@H]2C(=O)NCCOc2ccc(CC(=O)O)cc2)cc1
26,249 to 251 °C,CCOC(=O)c1cc2n(C)c3ccc(OC)cc3c(=O)n2n1
27,187 to 188 °C,O=C(CCC1CCC(=O)N1)Nc1ccncc1 (configuration not stated)
